Assay results from patent publication US20240424118A1, “VECTORS TARGETING BETA-D-N-ACETYLGLUCOSAMINIDASE” (CENTRE NATIONAL DE LA RECHERCHE SCIENTIFIQUE, priority 2021, published 2024).

What was measured:
[1] = system: MDA-MB-231 orthotopic tumors; test: Therapeutic efficacy on MDA-MB-231 orthotopic triple negative breast tumor model in mice; format: in vivo
Method: The vectors were administered on days 21, 35 and 49. Each point corresponds to the average of the tumor volumes±SEM. The curves with the triangles correspond to the vehicle and the curves with the squares correspond to the vector 80.
The therapeutic efficacy of vector 80 was evaluated in mice, on a triple negative breast tumor model of the MDA-MB-231 type (FIG. 2). Compound 80 was administered three times, with a period of 14 days, intravenously in the caudal vein, at a dose of 4 mg·kg^−1.

KB tumor line = test: Antiproliferative activity (cell viability) on KB tumor line, with or without β-N-acetylglucosaminidase; format: cell-based, human; settings: KB cells, 72 hours of incubation
Method: (§1) The curves with the circles correspond to MMAE, the curves with the squares correspond to vector 80 and the curves with the triangles correspond to vector 80 in the presence of GlcNase.
(§2) The antiproliferative activity of vector 80 was evaluated on human KB and MDA-MB-231 tumor lines and compared to that of MMAE. To do this, compound 80 was placed in the culture medium in the absence or presence of β-N-acetylglucosaminidase and cell viability was measured after 72 hours of incubation (FIG. 1).

MDA-MB-231 tumor line = test: Antiproliferative activity (cell viability) on MDA-MB-231 tumor line, with or without β-N-acetylglucosaminidase; format: cell-based, human; settings: MDA-MB-231 cells, 72 hours of incubation
Method: as §1, §2

## CC[C@H](C)[C@@H]([C@@H](CC(=O)N1CCC[C@H]1[C@H](OC)[C@@H](C)C(=O)N[C@H](C)[C@@H](O)c1ccccc1)OC)N(C)C(=O)[C@@H](NC(=O)[C@H](C(C)C)N(C)C(=O)OC(Cc1cn(CCOCCOCCOCCOCCOCCOCCOCCOCCOCCOCCNC(=O)CCCCCN2C(=O)C=CC2=O)nn1)c1ccc(O[C@@H]2OC(CO)[C@@H](O)[C@H](O)C2NC(C)=O)c([N+](=O)[O-])c1)C(C)C (stereo partly shown) [vector 80]
[1]; 4 mg·kg^−1 intravenously, days 21, 35 and 49
  therapeutic activity relative to the control group: significant therapeutic activity
[1]; end of the experiment (day 63), 4 mg·kg^−1 intravenously
  mice with total and lasting regression of the tumor: 3/6
[1]; from day 35, after the first injection, 4 mg·kg^−1 intravenously
  mice that no longer had detectable tumors: 4/6
[1]; initial response, before regrowth at day 42, 4 mg·kg^−1 intravenously
  reduction in the initial tumor size (initial response to treatment): 90%
[1]; until end of protocol (day 63), 4 mg·kg^−1 intravenously, three administrations
  mortality (tolerance): no mortality
KB tumor line
  cytotoxicity in the absence versus presence of β-N-acetylglucosaminidase: identical cytotoxicity
MDA-MB-231 tumor line
  cytotoxicity in the absence versus presence of β-N-acetylglucosaminidase: identical cytotoxicity
